Data: paper PMC10214525, “A Turn-On Fluorescent Amino Acid Sensor Reveals Chloroquine’s Effect on Cellular Amino Acids via Inhibiting Cathepsin L” (ACS Central Science, 2023)

Tests used:
NPC2 = target: T1, NPC2 (Homo sapiens, UniProt P61916); test: competition (chase) of CQ-X photo-cross-linking in cells; format: cell-based
T1 construct: endogenous, A549 cells
T1 sequence (P61916 20-151): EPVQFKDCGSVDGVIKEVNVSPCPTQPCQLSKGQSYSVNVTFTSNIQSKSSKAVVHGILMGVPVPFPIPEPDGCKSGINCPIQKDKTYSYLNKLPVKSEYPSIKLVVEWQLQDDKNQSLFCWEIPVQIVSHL

Cathepsin L (CTSL) = target: T2, Cathepsin L (CTSL) (Homo sapiens, UniProt P07711); test: Z-FR-AMC fluorogenic cleavage assay, pH […]; supported by intrinsic fluorescence of CTSL-Flag and CQ-X chase; format: biochemical
T2 construct: commercial purified CTSL (BPS Biosciences kit); CTSL-Flag-Myc purified from HEK-293T for intrinsic fluorescence
T2 sequence (P07711 114-288): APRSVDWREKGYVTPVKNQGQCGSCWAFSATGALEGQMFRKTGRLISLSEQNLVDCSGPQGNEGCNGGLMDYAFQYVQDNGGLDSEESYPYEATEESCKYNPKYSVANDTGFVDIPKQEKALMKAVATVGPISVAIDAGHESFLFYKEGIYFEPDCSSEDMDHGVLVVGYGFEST
T2 sequence (P07711 292-333): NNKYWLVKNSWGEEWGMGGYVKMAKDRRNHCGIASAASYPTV

CCN(CC)CCCC(C)Nc1ccnc2cc(Cl)ccc12 (centres unmarked) [CQ, chloroquine]
competition (chase) of CQ-X photo-cross-linking in cells (NPC2): The results confirmed that chloroquine could bind to NPC2 and CTSL. | IC50 (Cathepsin L (CTSL)): 181 µM
